# Test system: TNFAIP8L2
# Assay: siRNA dose response, TNFAIP8L2 mRNA knockdown, bDNA Assay
# Format: cell-based, human
# Settings: THP-1, 24 hr
# Experimental: (§1) Dose response curves for siRNAs were generated in vitro using a variety of cell lines according to Table 4.
# (§2) Briefly, cells were seeded in 96-well plates and reverse transfected with siRNA, Lipofectamine® 2000 (0.5 uL/well; ThermoFisher), and, in some cases, a reporter plasmid (50 ng/well). The reporter plasmid (psiCHECK™-2, Promega) encoded both firefly luciferase and the gene of interest fused to renilla luciferase; silencing of the gene of interest results in proportional silencing of renilla luciferase but leaves firefly luciferase unaffected as an internal control.
# (§3) After 24 hr incubation at 37° C., mRNA knockdown was measured using an endpoint assay. For targets without a reporter plasmid, a branched DNA (bDNA) assay was performed according to the manufacturer's instructions (QuantiGene® Singleplex Gene Expression Assay, ThermoFisher) to measure both the target gene and GAPDH (housekeeping gene) mRNA. Data are plotted as siRNA concentration (nM) vs. remaining mRNA (ratio of target gene to GAPDH, normalized to mock siRNA-transfected cells). For targets with a reporter plasmid, a Dual-Glo® Luciferase Assay was performed according to the manufacturer's instructions (Promega) to measure firefly and renilla luciferase expression. Data are plotted as siRNA concentration (nM) vs. remaining mRNA (ratio of renilla to firefly luminescence, normalized to mock siRNA-transfected cells).
# (§4) For all dose response curves, a 4-parameter logistic model was applied to determine the IC50 of each siRNA sequence (Table 5 and FIG. 2). Data shown in Table 5 and FIG. 2 represent the mean of quadruplicates, +/−standard deviation.
row,Substance,IC50
1,"XD-09760: siRNA targeting TNFAIP8L2 (sense 5'-ggAccAGGccGuGaucucudTsdT-3'; antisense 5'-AGAGAUcACGGCCUGGUCCdTsdT-3'; RNA with 2'-O-methyl and phosphorothioate modifications, case key not given here, as printed in the source, key not given here)",0.058 nM
2,"XD-09761: siRNA targeting TNFAIP8L2 (sense 5'-ggucAGGuGGAGAucucuudTsdT-3'; antisense 5'-AAGAGAUCUCcACCUGACCdTsdT-3'; RNA with 2'-O-methyl and phosphorothioate modifications, case key not given here, as printed in the source, key not given here)",0.701 nM
3,"XD-09762: siRNA targeting TNFAIP8L2 (sense 5'-uuuAAuGuAucGcuAccAAdTsdT-3'; antisense 5'-UUGGuAGCGAuAcAUuAAAdTsdT-3'; as printed in the source, key not given here)",0.226 nM
4,"XD-09764: siRNA targeting TNFAIP8L2 (sense 5'-cguuGcGcuGGAAgGAAuudTsdT-3'; antisense 5'-AAUUCCUUCcAGCGcAACGdTsdT-3'; as printed in the source, key not given here)",2.98 nM
5,"XD-09765: siRNA targeting TNFAIP8L2 (sense 5'-cuGcGcGAGGcGcaAuAcAdTsdT-3'; antisense 5'-UGuAUUGCGCCUCGCGcAGdTsdT-3'; RNA with 2'-O-methyl and phosphorothioate modifications, case key not given here, as printed in the source, key not given here)",0.023 nM
6,"XD-09766: siRNA targeting TNFAIP8L2 (sense 5'-cccucGAuGuAcAuAGcuudTsdT-3'; antisense 5'-AAGCuAUGuAcAUCGAGGGdTsdT-3'; RNA with 2'-O-methyl and phosphorothioate modifications, case key not given here, as printed in the source, key not given here)",0.127 nM
7,"XD-09768: siRNA targeting TNFAIP8L2 (sense 5'-aaAucAAucAuGuuAcAcudTsdT-3'; antisense 5'-AGUGuAAcAUGAUUGAUUUdTsdT-3'; RNA with 2'-O-methyl and phosphorothioate modifications, case key not given here, as printed in the source, key not given here)",0.353 nM
8,"XD-09796: siRNA targeting TNFAIP8L2 (sense 5'-gcAcAuAGcAAGcuGAAcudTsdT-3'; antisense 5'-AGUUcAGCUUGCuAUGUGCdTsdT-3'; RNA with 2'-O-methyl and phosphorothioate modifications, case key not given here, as printed in the source, key not given here)",11.6 nM

# Test system: CD207
# Assay: siRNA dose response, CD207 mRNA knockdown, Dual-Glo Luciferase Assay
# Format: cell-based, human
# Settings: Hepal-6 + reporter plasmid, 24 hr
# Experimental: as §1, §2, §3, §4
row,Substance,IC50
1,"XD-09240: siRNA targeting CD207 (sense 5'-guGAGcAcucAGGauGAcudTsdT-3'; antisense 5'-AGUcAUCCUGAGUGCUcACdTsdT-3'; as printed in the source, key not given here)",0.678 nM

# Test system: TBXAS1
# Assay: siRNA dose response, TBXAS1 mRNA knockdown, bDNA Assay
# Format: cell-based, human
# Settings: A549, 24 hr
# Experimental: as §1, §2, §3, §4
row,Substance,IC50
1,"XD-10497: siRNA targeting TBXAS1 (sense 5'-ccAuGGGcGuGcAaGAcuudTsdT-3'; antisense 5'-AAGUCUUGcACGCCcAUGGdTsdT-3'; RNA with 2'-O-methyl and phosphorothioate modifications, case key not given here, as printed in the source, key not given here)",0.137 nM
2,"XD-10498: siRNA targeting TBXAS1 (sense 5'-gcGuGcAAGAcuuuGAcAudTsdT-3'; antisense 5'-AUGUcAAAGUCUUGcACGCdTsdT-3'; RNA with 2'-O-methyl and phosphorothioate modifications, case key not given here, as printed in the source, key not given here)",0.273 nM

# Test system: SPI1
# Assay: siRNA dose response, SPI1 mRNA knockdown, bDNA Assay
# Format: cell-based, human
# Settings: THP-1, 24 hr
# Experimental: as §1, §2, §3, §4
row,Substance,IC50
1,"XD-09780: siRNA targeting SPI1 (sense GGAUCUAUACCAACGCCAATT; antisense UUGGCGUUGGUAUAGAUCCTT; 2'-O-methyl and phosphorothioate modified, lower-case key not given here)",2.66 nM
2,"XD-09781: siRNA targeting SPI1 (sense CGCCAAACGCACGAGUAUUTT; antisense AAUACUCGUGCGUUUGGCGTT; 2'-O-methyl and phosphorothioate modified, lower-case key not given here)",0.455 nM
3,"XD-09783: siRNA targeting SPI1 (sense GCGACAUGAAGGACAGCAUTT; antisense AUGCUGUCCUUCAUGUCGCTT; 2'-O-methyl and phosphorothioate modified, lower-case key not given here)",1.11 nM
4,"XD-09785: siRNA targeting SPI1 (sense GUCUCAAGUCCGUAUGUAATT; antisense UUACAUACGGACUUGAGACTT; 2'-O-methyl and phosphorothioate modified, lower-case key not given here)",0.479 nM
5,"XD-09786: siRNA targeting SPI1 (sense UCUCAAGUCCGUAUGUAAATT; antisense UUUACAUACGGACUUGAGATT; 2'-O-methyl and phosphorothioate modified, lower-case key not given here)",0.25 nM
6,"XD-09787: siRNA targeting SPI1 (sense CCGUAUGUAAAUCAGAUCUTT; antisense AGAUCUGAUUUACAUACGGTT; 2'-O-methyl and phosphorothioate modified, lower-case key not given here)",0.075 nM
7,"XD-09788: siRNA targeting SPI1 (sense 5'-acAAGuAAAGuuAuucucAdTsdT-3'; antisense 5'-UGAGAAuAACUUuACUUGUdTsdT-3'; as printed in the source, key not given here)",1.32 nM
8,"XD-09789: siRNA targeting SPI1 (sense 5'-aaAGuuAuucucAauccAudTsdT-3'; antisense 5'-AUGGAUUGAGAAuAACUUUdTsdT-3'; as printed in the source, key not given here)",0.442 nM

# Test system: SELPLG
# Assay: siRNA dose response, SELPLG mRNA knockdown, bDNA Assay
# Format: cell-based, human
# Settings: THP-1, 24 hr
# Experimental: as §1, §2, §3, §4
row,Substance,IC50
1,"XD-09261: siRNA targeting SELPLG (sense 5'-ccAccGAAuAUGAguAccudTsdT-3'; antisense 5'-AGGuACUcAuAUUCGGUGGdTsdT-3'; as printed in the source, key not given here)",0.386 nM
2,"XD-09262: siRNA targeting SELPLG (sense 5'-ccGAAuAuGAGuAccuAGAdTsdT-3'; antisense 5'-UCuAGGuACUcAuAUUCGGdTsdT-3'; as printed in the source, key not given here)",1.35 nM
3,"XD-09263: siRNA targeting SELPLG (sense 5'-gcAcAGAccAcucaAcccAdTsdT-3'; antisense 5'-UGGGUUGAGUGGUCUGUGCdTsdT-3'; as printed in the source, key not given here)",2.96 nM
4,"XD-09264: siRNA targeting SELPLG (sense 5'-accAAAAGAGGucuGuucAdTsdT-3'; antisense 5'-UGAAcAGACCUCUUUUGGUdTsdT-3'; as printed in the source, key not given here)",1.96 nM
5,"XD-09265: siRNA targeting SELPLG (sense 5'-aaGcAGAcGGGcAaGuGGAdTsdT-3'; antisense 5'-UCcACUUGCCCGUCUGCUUdTsdT-3'; RNA with 2'-O-methyl and phosphorothioate modifications, case key not given here, as printed in the source, key not given here)",0.486 nM
6,"XD-09266: siRNA targeting SELPLG (sense 5'-aguAcuGAAGAGugAcGGAdTsdT-3'; antisense 5'-UCCGUcACUCUUcAGuACUdTsdT-3'; RNA with 2'-O-methyl and phosphorothioate modifications, case key not given here, as printed in the source, key not given here)",0.207 nM
7,"XD-09267: siRNA targeting SELPLG (sense 5'-acuGAAGAGuGAcgGAcuudTsdT-3'; antisense 5'-AAGUCCGUcACUCUUcAGUdTsdT-3'; RNA with 2'-O-methyl and phosphorothioate modifications, case key not given here, as printed in the source, key not given here)",1.07 nM
8,"XD-09268: siRNA targeting SELPLG (sense 5'-ccAAGGGcAGAccuuucuudTsdT-3'; antisense 5'-AAGAAAGGUCUGCCCUUGGdTsdT-3'; RNA with 2'-O-methyl and phosphorothioate modifications, case key not given here, as printed in the source, key not given here)",0.471 nM
